Laboratory results published in patent US8551742B2 (priority 2007, dated 2013).
Residue numbers refer to the chain shown, from its start. In brackets after ≈: the same amount, converted by molar mass.

Assays:
[1] = biological target: Rickettsia high-affinity SAMe transport system (Rickettsia prowazekii, UniProt Q9ZE70); settings: Rickettsia SAMe transporter; cited from earlier work
[2] = biological target: T1, SAMe transporter from S. cerevisiae (Saccharomyces cerevisiae, UniProt Q08986); settings: cited from earlier work
T1 sequence (Q08986 1-587): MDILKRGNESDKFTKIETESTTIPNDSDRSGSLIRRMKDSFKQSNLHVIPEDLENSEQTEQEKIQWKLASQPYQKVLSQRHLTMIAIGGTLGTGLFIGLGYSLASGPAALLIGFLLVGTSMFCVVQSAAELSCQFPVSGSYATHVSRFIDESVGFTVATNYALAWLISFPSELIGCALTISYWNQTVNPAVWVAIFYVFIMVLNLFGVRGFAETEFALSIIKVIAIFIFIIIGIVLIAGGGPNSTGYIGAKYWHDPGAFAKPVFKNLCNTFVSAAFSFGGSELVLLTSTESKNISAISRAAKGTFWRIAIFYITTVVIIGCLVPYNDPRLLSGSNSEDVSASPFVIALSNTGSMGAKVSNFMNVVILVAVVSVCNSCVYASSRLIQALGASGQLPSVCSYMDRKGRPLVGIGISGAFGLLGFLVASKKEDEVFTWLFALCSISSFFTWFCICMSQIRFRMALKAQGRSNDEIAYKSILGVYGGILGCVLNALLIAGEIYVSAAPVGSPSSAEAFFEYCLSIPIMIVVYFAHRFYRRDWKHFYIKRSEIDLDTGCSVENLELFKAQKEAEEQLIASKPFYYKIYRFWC

[3] = test system: SAMe transporter from P. carnii; settings: cited from earlier work
[4] = test system: SAMe transporter from rat liver; settings: cited from earlier work
[5] = test system: homocysteine synthase encoded by metY from Pseudomonas aeruginosa; assay: Homocysteine synthase (MetY) activity assay (Yamagata, modified, DTNB detection)
physchem = settings: 30 °C, water
Description: This is close to the highest concentration achievable in the assay conditions.

[6] = 30° C.; cited from earlier work
[7] = biological target: high affinity L-methionine transporter (metD) (Escherichia coli, UniProt P28635); settings: very high affinity transporter in E. coli; cited from earlier work
[8] = test system: lower affinity L-methionine transporter (metP); settings: lower affinity transporter in E. coli; cited from earlier work
MetK [9] = assay: MetK mutants radioactive assay in vitro ([methyl-14C]methionine to SAMe); assay type: biochemical, E. coli; settings: 5 minute reaction time; C-terminal His tagged proteins unless untagged
Procedure: The metK gene from E. coli (Accession number AP—003499 or BAE77005) was cloned and overexpressed with either an N-terminal or a C-terminal His tag in pET28b vector. Site directed mutagenesis was performed using the C-terminal His tagged metK clone to generate the desired mutants. Expression of the mutant MetK proteins was confirmed.
The MetK mutants were purified (using the C-terminal His tag) and assayed in vitro. The wild type C-terminal His-tagged MetK protein was used as a control. The mutants were assayed using a radioactive assay. The assay conditions were as follows: • Assay Mix: • 1.0 mL 0.5 M HEPES/KOH, pH 8.0 • 0.5 mL 1.0 M KCl • 0.2 mL 1.0 M MgCl2 • 1.0 mL 100 mM ATP (disodium salt, pH 8.0 with KOH) • 0.1 mL 50 mM methionine • 0.1 mL NEN [methyl-^14C]methionine • 6.6 mL H2O • 25 mM EDTA pH 8.0 stop for assays.
45 μl of assay mix was added to an Eppendorf tube and 5 μL of enzyme (normalized data shown in Table 13. The reaction was incubated at room temperature (or 25° C.) for a desired period (1 to 10 minutes). The reaction was stopped with the addition of 150 μL of 25 mM EDTA. 100 μL of the reaction was spotted onto a 2.5 cm diameter Whatman P-81 phosphocellulose filter circle (labeled in pencil). The filters were washed with 3 L of distilled water, air-dried and placed in scintillation vials with aquasol. The emissions were counted using a window that extends from ^14C to about 0. Assay efficiency and quench levels were determined by adding a known amount of counts of pure ^14C-SAM and processing through the whole procedure. Backgrounds are typically<100 cpm (total counts ca. 10^5 cpm per reaction).

excreted Met = settings: literature reference AEM 2005; cited from earlier work
MetK [10] = settings: literature reference; cited from earlier work
O-succinylsulfhydrylase = biological target: T2, O-succinylsulfhydrylase (Pseudomonas aeruginosa, UniProt P55218); assay: In-vitro assays of O-succinylsulfhydrylase; assay type: biochemical
T2 sequence (P55218 whole entry, looked up): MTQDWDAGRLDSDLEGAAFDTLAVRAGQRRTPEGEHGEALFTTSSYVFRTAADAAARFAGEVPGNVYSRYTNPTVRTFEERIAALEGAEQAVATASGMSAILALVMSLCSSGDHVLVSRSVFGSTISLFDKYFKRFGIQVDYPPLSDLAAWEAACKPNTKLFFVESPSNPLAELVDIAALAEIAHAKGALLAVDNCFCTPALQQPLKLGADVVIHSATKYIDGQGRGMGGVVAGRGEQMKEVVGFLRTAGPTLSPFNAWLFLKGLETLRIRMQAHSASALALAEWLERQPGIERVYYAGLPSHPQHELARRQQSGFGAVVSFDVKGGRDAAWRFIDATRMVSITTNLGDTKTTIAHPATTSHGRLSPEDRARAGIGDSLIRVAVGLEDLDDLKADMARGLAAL
Procedure: Low methionine production of the deletion mutants transformed with metZ may be due to the limitation of sulfide in the intracellular fraction (methods of increasing sulfide concentration are provided below). This is supported by the finding that the growth of the metBC deletion strain transformed with metZ was enhanced in M9 media in the presence of 2 mM sodium sulfide. […] Through directed evolution, it is possible to develop improved O-succinylsulfhydrylases with higher sulfide affinity and also higher activity.

[11] = OAHS as substrate, 10 mM inhibitor

Rickettsia high-affinity SAMe transport system, sequence (Q9ZE70 whole entry, looked up): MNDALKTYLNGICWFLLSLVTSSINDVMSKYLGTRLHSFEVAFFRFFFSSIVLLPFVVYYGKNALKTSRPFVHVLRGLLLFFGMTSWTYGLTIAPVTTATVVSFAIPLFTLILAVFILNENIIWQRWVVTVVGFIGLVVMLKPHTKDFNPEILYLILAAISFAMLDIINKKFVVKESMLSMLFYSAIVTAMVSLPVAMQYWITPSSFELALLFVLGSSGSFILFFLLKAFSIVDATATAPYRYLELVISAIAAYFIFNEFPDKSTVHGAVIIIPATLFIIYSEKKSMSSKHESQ
high affinity L-methionine transporter (metD), sequence (P28635 23-271): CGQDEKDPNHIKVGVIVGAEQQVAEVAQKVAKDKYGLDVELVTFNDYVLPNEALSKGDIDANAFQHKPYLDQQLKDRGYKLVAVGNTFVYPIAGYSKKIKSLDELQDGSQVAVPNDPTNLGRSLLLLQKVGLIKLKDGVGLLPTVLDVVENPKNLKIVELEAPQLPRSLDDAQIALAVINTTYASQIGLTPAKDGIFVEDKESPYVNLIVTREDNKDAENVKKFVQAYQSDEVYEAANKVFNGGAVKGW
high affinity L-methionine transporter (metD), sequence (P30750 whole entry, further chain): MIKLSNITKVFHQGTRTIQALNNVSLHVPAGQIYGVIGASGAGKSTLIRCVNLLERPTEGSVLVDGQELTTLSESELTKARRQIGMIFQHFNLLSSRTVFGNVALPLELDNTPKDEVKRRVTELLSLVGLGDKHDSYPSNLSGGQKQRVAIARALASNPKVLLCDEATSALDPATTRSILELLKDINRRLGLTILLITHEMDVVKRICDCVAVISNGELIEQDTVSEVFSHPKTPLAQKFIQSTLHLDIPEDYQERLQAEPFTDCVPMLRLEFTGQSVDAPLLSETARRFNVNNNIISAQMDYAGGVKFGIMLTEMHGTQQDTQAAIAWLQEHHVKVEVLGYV
high affinity L-methionine transporter (metD), sequence (P31547 whole entry, further chain): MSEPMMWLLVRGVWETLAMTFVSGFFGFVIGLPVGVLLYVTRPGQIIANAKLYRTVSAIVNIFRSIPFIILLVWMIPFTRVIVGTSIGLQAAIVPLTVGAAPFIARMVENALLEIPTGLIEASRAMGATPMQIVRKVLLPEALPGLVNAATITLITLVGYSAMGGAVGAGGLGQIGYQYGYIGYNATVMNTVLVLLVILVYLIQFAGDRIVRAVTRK

C[S+](CC[C@H](N)C(=O)O)C[C@H]1O[C@@H](n2cnc3c(N)ncnc32)[C@H](O)[C@@H]1O (some centres unmarked) [SAMe, S-adenosylmethionine]
KT [1]: 2 to 8 µM
KT [2]: 3.3 µM
KT [3]: 4.5 µM
KT [4]: 8.9 µM
activity retained relative to absence of inhibitor ([5]; OAHS as substrate, 5 mM inhibitor): approximately 72%
activity retained relative to absence of inhibitor [5, 11]: ~21%
activity retained relative to absence of inhibitor ([5]; OSHS as substrate, 5 mM inhibitor): 86%
activity retained relative to absence of inhibitor ([5]; OSHS as substrate, 10 mM inhibitor): 19%

CSCC[C@H](N)C(=O)O [methionine]
solubility (physchem): 375000 µM (≈ 56 mg/mL)
solubility in water [6]: 5.6 g/100 mL
Km [7]: 0.1 to 0.13 µM
Km [8]: 20 to 40 µM
inhibition of MetY ([5]; 1 mM methionine): Some inhibition
activity retained relative to absence of inhibitor [5, 11]: about 50%
activity retained relative to absence of inhibitor ([5]; OAHS as substrate, 50 mM inhibitor): ~19%
activity retained relative to absence of inhibitor ([5]; OAHS as substrate, 100 mM inhibitor): ~9%
activity retained relative to absence of inhibitor ([5]; OSHS as substrate, 50 mM inhibitor): 53%
activity retained relative to absence of inhibitor ([5]; OSHS as substrate, 100 mM inhibitor): 31%

B1: Val 185 Glu: E. coli MetK mutant, C-terminal His tagged, purified (protein, UniProt P0A817 2-384, looked up, variant V185E)
S-adenosylmethionine synthase: AKHLFTSESVSEGHPDKIADQISDAVLDAILEQDPKARVACETYVKTGMVLVGGEITTSAWVDIEEITRNTVREIGYVHSDMGFDANSCAVLSAIGKQSPDINQGVDRADPLEQGAGDQGLMFGYATNETDVLMPAPITYAHRLVQRQAEVRKNGTLPWLRPDAKSQVTFQYDDGKIVGIDAVELSTQHSEEIDQKSLQEAVMEEIIKPILPAEWLTSATKFFINPTGRFVIGGPMGDCGLTGRKIIVDTYGGMARHGGGAFSGKDPSKVDRSAAYAARYVAKNIVAAGLADRCEIQVSYAIGVAEPTSIMVETFGTEKVPSEQLTLLVREFFDLRPYGLIQMLDLLHPIYKETAAYGHFGREHFPWEKTDKAQLLRDAAGLK
modifications: C-terminal His tag
notes: E. coli MetK mutant, C-terminal His tagged, purified
Activity (CPM SAMe/ μg purified protein/min) (MetK [9]): 4.9 CPM SAMe/ μg purified protein/min
Expected Effect: increase in excreted Met over control (excreted Met): 6.4X increase in

B2: His 14 Asn (protein, UniProt P0A817 2-384, looked up, variant H14N)
S-adenosylmethionine synthase: B1 S-adenosylmethionine synthase with H14N, E184V
Activity (CPM SAMe/ μg purified protein/min) (MetK [9]): 7.7 CPM SAMe/ μg purified protein/min
Expected Effect on SAMe synth: activity reduced / lower activity than WT (MetK [10]): Activity reduced ~ 104 fold

B3: Lys 245 Met (protein, UniProt P0A817 2-384, looked up, variant K245M)
S-adenosylmethionine synthase: B1 S-adenosylmethionine synthase with E184V, K245M
Activity (CPM SAMe/ μg purified protein/min) (MetK [9]): 2.5 CPM SAMe/ μg purified protein/min
Expected Effect on SAMe synth: activity reduced / lower activity than WT (MetK [10]): 42,000 fold

B4: Asp 271 Ala (protein, UniProt P0A817 2-384, looked up, variant D271A)
S-adenosylmethionine synthase: B1 S-adenosylmethionine synthase with E184V, D271A
Activity (CPM SAMe/ μg purified protein/min) (MetK [9]): 0.4 (not duplicated) CPM SAMe/ μg purified protein/min
Expected Effect on SAMe synth: kcat reduction (MetK [10]): kcat reduction of ~ 103 fold

B5: Asp 16 Asn (protein, UniProt P0A817 2-384, looked up, variant D16N)
S-adenosylmethionine synthase: B1 S-adenosylmethionine synthase with D16N, E184V
Activity (CPM SAMe/ μg purified protein/min) (MetK [9]): 2.5 CPM SAMe/ μg purified protein/min
Expected Effect on SAMe synth: kcat reduction (MetK [10]): kcat reduction of ~ 103 fold

B6: O-succinylsulfhydrylase: O-succinylsulfhydrylase (EC 4.2.99.-) codified by metZ from Pseudomonas aeruginosa (protein, UniProt P55218 1-403, looked up)
O-succinylhomoserine …: T2 sequence (P55218 whole entry, looked up)
sulfide affinity (O-succinylsulfhydrylase): low sulfide affinity
